# Measured values: patent US11479561B2, “Tetrahydroisoquinoline derivatives” (Cytokinetics, Incorporated, priority 2016, dated 2022)
# Columns and labels:
# [1] = tested on: rabbit skeletal myofibrils (approximately 90% fast fibers); assay: Activation of fast skeletal myofibrils (PUMA coupled-enzyme ATPase assay); format: biochemical; conditions: concentration at which the compound increased the enzymatic activity by 40%; calcium level pCa25
# Method: Preparation of fast skeletal myofibrils: Rabbit skeletal myofibrils were prepared based upon the method of Herrmann et al. (Biochem. 32(28):7255-7263(1993). Myofibrils were prepared from rabbit psoas muscle purchased from Pel-Freez Biologicals (Arkansas) within 2 days of ordering, stored on ice. Minced muscle was homogenized in 10 volumes of ice-cold “standard” buffer (50 mM Tris, pH 7.4, 0.1 M KOAc, 5 mM KCl, 2 mM dithiothreitol (DTT), 0.2 mM phenylmethylsulfonyl fluoride (PMSF), 10 μM leupeptin, 5 μM pepstatin, and 0.5 mM sodium azide) containing 5 mM ethylenediaminetetraacetic acid (EDTA) and 0.5% Triton X-100 using an Omni-Macro homogenizer. Myofibrils were recovered by low speed centrifugation (3000 rpm for 10 minutes) and washed 2 times in the Triton X-100 containing buffer to ensure removal of cellular membrane. Following the Triton washes, myofibrils were washed 3 times in “standard” buffer containing 2 mM magnesium acetate. A final wash in assay buffer (12 mM piperazine-1,4-bis(2-ethanesulfonic acid) (PIPES), pH 6.8, 60 mM KCl, 1 mM DTT) was performed and brought to 10% sucrose for flash freezing in liquid nitrogen and storage at −80° C.
# Activation of Fast Skeletal Myofibrils: Fast fiber activators were identified by Measuring the enzymatic activity of muscle myofibril preparations using the proprietary PUMA (trademark) (see, e.g., U.S. Pat. Nos. 6,410,254, 6,743,599, 7,202,051, and 7,378,254) assay system. Myofibril preparations consisted of rabbit skeletal muscle (approximately 90% fast fibers) that had been mechanically homogenized and washed with a detergent (Triton X-100) to remove cellular membranes. This preparation retained all of the sarcomeric components in a native conformation and the enzymatic activity was still regulated by calcium. Compounds were tested using a myofibril suspension and a level of calcium sufficient to increase enzymatic activity of the myofibrils to 25% of their maximal rate (termed pCa25). Enzymatic activity was tracked via a pyruvate kinase and lactate dehydrogenase-coupled enzyme system. This assay regenerates myosin-produced ADP into ATP by oxidizing NADH, producing an absorbance change at 340 nm. The buffering system was 12 mM PIPES, 2 mM MgCl2, 1 mM DTT at pH 6.8 (PM12 buffer).
# [2] = tested on: ankle plantarflexor muscle; assay: Rat isometric ankle plantarflexor muscle force; format: in vivo, Sprague Dawley rats; conditions: estimated, concentration at which muscle force is 50% of the pre-dose maximum tension, 30 Hz stimulation, continuous intravenous infusion over 60 min
# Text: Female Sprague Dawley rats were placed under a stable anesthesic plane with inhaled isoflurane (1-5%). One incision was made on the mid-thigh region of the right leg to expose the sciatic nerve. To prevent co-contraction of the ankle dorsiflexors, an additional incision was made lateral to the patella to isolate and sever the peroneal nerve. Rats were then placed on a temperature-maintained in situ muscle analysis rig (Aurora Scientific, Model 806C). The knee was immobilized in a clamp between two sharpened screws and the foot was taped to a footplate attached to a force transducer (Aurora Scientific, Ontario, Canada). Stainless steel needle electrodes (0.10 mm) were hooked around the exposed sciatic nerve. Isometric ankle plantarflexor muscle contractile force was assessed with the ankle joint at 90° flexion. A 30 Hz electrical stimulation (under supramaximal voltage conditions) was applied to the nerve and the resulting muscle force was recorded via a servomotor. A pre-dose 30 Hz force response was established as the baseline force. A pre-dose 150 Hz force response was established as the maximum isometric force. Compounds were formulated in 50% polyethylene glycol (PEG): 16% Cavitron: 10% dimethylacetamide (DMA) and administered by continuous intravenous infusion over a sixty minute period. The muscle force response to compound was measured every two minutes over the dosing period. Data was reported as an estimated EC50 value, which is the concentration at which muscle force is 50% of the pre-dose maximum tension.
SMILES,AC1.4 [1],"EC50 ([2]; Rattus norvegicus, iv, 1 h)",EC50 [2]
CC1(C)C(=O)NC2(COC2)c2ccc(C#N)cc21 [compound 20],–,30 µM,–
CC1(C)NC(=O)C(C)(C)c2cc(C#N)ccc21 [compound 61],0.537 µM,10.3 µM,–
CCC1(CC)C(=O)NC2(COC2)c2ncc(C#N)nc21 [compound 106],0.494 µM,15 µM,–
CCC1(C)C(=O)NC(C)(C)c2ccc(C#N)nc21 (stereo not shown) [compound 108],0.450 µM,23 µM,–
CC1(C)C(=O)NC2(COC2)c2ccc(OC(F)F)nc21 [compound 18],–,16 µM,–
CCC1(CC)C(=O)NC2(COC2)c2ccc(C#N)nc21 [compound 16],–,13 µM,–
CCC1(CC)C(=O)NC2(COC2)c2ccc(C(F)F)nc21 [compound 13],–,19.5 µM,–
CCC1(CC(F)F)C(=O)NC(C)(C)c2ccc(Br)cc21 (stereo not shown) [compound 83],<0.077 µM,–,–
CCC1(CC)C(=O)NC(C)(C)c2c(C#N)cccc21 [compound 63],3.707 µM,–,–
CCC1(CC(=O)O)C(=O)NC(C)(C)c2ccc(Br)cc21 (stereo not shown) [compound 91],20.240 µM,–,–
CCC1(CC)C(=O)NC(C)(C)c2ncc(Cl)nc21 [compound 69],0.485 µM,–,–
CCC1(CCF)C(=O)NC(C)(C)c2ccc(Br)cc21 (stereo not shown) [compound 81],0.098 µM,–,–
Cc1ccc2c(n1)C(C)(CC(F)F)C(=O)NC21COC1 (stereo not shown) [compound 95],0.720 µM,–,–
"C[C@H](O)CC1(C)C(=O)NC2(COC2)c2ccc(Cl)cc21 (mixture of isomers) [167b, rac-(4R)-6-chloro-4-[(2S)-2-hydroxypropyl]-4-methyl-2H-spiro[isoquinoline-1,3′-oxetan]-3(4H)-one]",0.869 µM,–,–
CCC1(CC)C(=O)NC2(COC2)c2cccnc21 [compound 12],–,34 µM,–
CC1(C)NC(=O)C(C)(Cc2cc[nH]n2)c2nc(C#N)ccc21 (stereo not shown) [compound 109],1.919 µM,39.7 µM,–
CCC1(CC)C(=O)NC(C)(C)c2ccc(Cl)nc21 [compound 84],0.401 µM,–,–
CCC1(CC)C(=O)NC2(COC2)c2ccc(OCC(F)(F)F)nc21 [compound 11],–,17 µM,–
CC1(C)NC(=O)C(CCF)(CCF)c2cc(Br)ccc21 [compound 140],0.199 µM,–,–
"CCC1(CC)C(=O)NC(C)(C)c2cc(Cl)c(C#N)cc21 [compound 34, 7-chloro-4,4-diethyl-1,1-dimethyl-3-oxo-1,2,3,4-tetrahydroisoquinoline-6-carbonitrile]",0.229 µM,–,–
CC1(CCO)C(=O)NC2(COC2)c2ccc(OC(F)F)nc21 (stereo not shown) [compound 19],–,35 µM,–
COC(=O)N1CCC2(CC1)C(=O)NC(C)(C)c1ccc(Cl)cc12 [compound 156],5.881 µM,–,–
CCC1(CC)C(=O)NC(C)(C)c2cc(C)c(C#N)cc21 [compound 97],0.332 µM,–,–
CC1(C)NC(=O)C2(CCOCC2)c2cc(Br)ccc21 [compound 44],5.982 µM,–,–
CCC1(CCO)C(=O)NC2(COC2)c2ccc(OC(F)F)nc21 (stereo not shown) [compound 15],–,16.4 µM,–
CCC1(CC)C(=O)NC(C)(C)c2cc(C3CC3)c(C#N)cc21 [compound 98],2.085 µM,–,–
CCC1(CC(=O)NCc2ccccc2)C(=O)NC(C)(C)c2ccc(Br)cc21 (stereo not shown) [compound 139],30.805 µM,–,–
"CC1(C)NC(=O)C2(CCN(S(C)(=O)=O)CC2)c2cc(Cl)ccc21 [compound 155, 6-chloro-1,1-dimethyl-1′-(methylsulfonyl)-1,2-dihydro-3H-spiro[isoquinoline-4,4′-piperidin]-3-one]",8.340 µM,–,–
CCC1(CC)C(=O)NC(C)(C)c2ccc(C)cc21 [compound 46],0.106 µM,–,–
CCC1(Cc2ccc(Cl)cc2)C(=O)NC(C)(C)c2ccc(Br)cc21 (stereo not shown) [compound 82],0.084 µM,–,–

# Continued, in another order:
AC1.4 [1],SMILES,"EC50 ([2]; Rattus norvegicus, iv, 1 h)",EC50 [2]
1.247 µM,CCC1(CCO)C(=O)NC2(COC2)c2ccc(C(F)F)nc21 (stereo not shown) [compound 103],23 µM,–
0.390 µM,CCC1(CC)C(=O)NC(C)(C)c2ccc(C#N)nc21 [compound 64],10 µM,–
5.017 µM,CCC1(CCO)C(=O)NC2(COC2)c2ccc(C(F)F)nc21 (stereo not shown) [compound 104],–,30 µM
0.420 µM,CCC1(CC)C(=O)NC(C)(C)c2ncc(Cl)cc21 [compound 72],15.4 µM,–
0.565 µM,"CC1(CCO)C(=O)NC2(COC2)c2ccc(Cl)cc21 (stereo not shown) [compound 35, 6-chloro-4-(2-hydroxyethyl)-4-methyl-2H-spiro[isoquinoline-1,3′-oxetan]-3(4H)-one]",–,23 µM
0.141 µM,"CCC1(CC)C(=O)NC2(COC2)c2ccc(C#N)cc21 [compound 55, 4,4-diethyl-3-oxo-3,4-dihydro-2H-spiro[isoquinoline-1,3′-oxetane]-6-carbonitrile]",7.6 µM,–
0.976 µM,CCC1(CC)C(=O)NC(C)(C)c2ncc(C#N)cc21 [compound 57],28 µM,–
0.902 µM,CCC1(CC)C(=O)NC2(COC2)c2ncc(Cl)cc21 [compound 74],15.4 µM,–
>39.200 µM,CC1(C)NC(=O)C2(CCOCC2)c2cc(C#N)ccc21 [compound 62],–,–
1.571 µM,CC1(C)NC(=O)C(C)(C)c2cc(Cl)cnc21 [compound 73],50 µM,–
0.367 µM,CCC1(C)C(=O)NC(C)(C)c2ccc(Cl)nc21 (stereo not shown) [compound 71],–,–
0.626 µM,CC1(C)NC(=O)C(C)(Cn2cccn2)c2nc(C#N)ccc21 (stereo not shown) [134a],–,–
2.830 µM,"CCC1(CC)C(=O)NC2(COC2)c2ccc(COC(F)F)nc21 [compound 143, 2-[(difluoromethoxy)methyl]-8,8-diethyl-6H-spiro[1,6-naphthyridine-5,3′-oxetan]-7(8H)-one]",–,–
5.393 µM,CCC1(CCOC)C(=O)NC2(COC2)c2ccc(C)nc21 (stereo not shown) [compound 96],–,–
<0.077 µM,CCC1(CC)C(=O)NC(C)(C)c2ccc(Cl)c(F)c21 [compound 141],–,–
1.318 µM,Cc1ccc2c(n1)C(C)(CC(F)F)C(=O)NC21COC1 (stereo not shown) [92a],–,–
8.994 µM,C=Cc1cnc2c(n1)C(CC)(CC)C(=O)NC21COC1 [compound 94],–,–
2.228 µM,CCC1(CCO)C(=O)NC2(COC2)c2ccc(C#N)nc21 (stereo not shown) [compound 101],24 µM,–
2.346 µM,COc1ccc2c(n1)C(C)(C)C(=O)NC21COC1 [compound 147],–,–
0.400 µM,Cc1ccc2c(n1)C(C)(CC(F)F)C(=O)NC21COC1 (stereo not shown) [92b],–,–
0.381 µM,CCC1(CC)C(=O)NC(C)(C(F)F)c2ccc(C#N)cc21 (stereo not shown) [compound 59],–,–
0.274 µM,CCC1(CC)C(=O)NC(C)(C)c2cc(Br)c(C#N)cc21 [compound 116],–,–
7.898 µM,C=CCC1(C)NC(=O)C(CC)(CC)c2nc(Cl)ccc21 (stereo not shown) [compound 77],–,–
3.293 µM,"C[C@@H](O)CC1(C)C(=O)NC2(COC2)c2ccc(Cl)cc21 (mixture of isomers) [167a, rac-(4R)-6-chloro-4-[(2R)-2-hydroxypropyl]-4-methyl-2H-spiro[isoquinoline-1,3′-oxetan]-3(4H)-one]",–,–
<0.077 µM,CCC1(CC)C(=O)NC(C)(C)c2ccc(Br)cc21 [compound 49],8.2 µM,–
0.271 µM,CC1(CC(F)F)C(=O)NC2(COC2)c2ccc(OC(F)F)nc21 (stereo not shown) [compound 113],8 µM,–
0.252 µM,C=CCC1(C)C(=O)NC(C)(C)c2ccc(C#N)nc21 (stereo not shown) [compound 60],–,–
